This passage reports GI50 and TGI results from PubChem BioAssay (NCI).

Experiment in all cases: inhibition of tumour cell growth, NCI panel, 48 h
For test [1], the system named is ACHN renal.
Test [2] has as its system DMS 273 small cell lung.
Test [3] has as its system OVCAR-4 ovarian.
Test [4] relates to SK-MEL-28 melanoma.
The test system of test [5] is UO-31 renal.
The test system of test [6] is A498 renal.
The subject of test [7] is MDA-MB-231 breast.
Test [8] has as its system NCI/ADR-RES ovarian.
Test [9] relates to PC-3 prostate.
Test [10] deals with M19-MEL melanoma.

“And” between values parts separate entries of the source, which are not always exact repeats. Equal values may be shown once.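 Five compound concentrations were applied to cells in 96-well plates for 48 hours; endpoints were derived by simple linear interpolation of the resulting dose-response curve. Abbreviation: GI50, concentration required for 50% inhibition of growth. The concentration for full growth arrest is given as TGI.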

In the case of `N.N.N.N.N.[Cl-].[Co+3].c1ccc(-c2nn[n-]n2)cc1`, the GI50 in test [1] was over 100000 nM; in test [2] it was over 100 µM; in test [3], over 100000 nM; in test [4], over 100 µM; in [5], over 100000 nM. In addition, the TGI in [1], in test [2], in [3], in test [4] and in test [5] was over 100 µM throughout.

As for `COc1ccc2c(c1)nnn1c3ncccc3c(N=O)c21`, the GI50 is 1270 nM and 6230 nM in test [6]; 374 nM in test [1]; 1260 nM and 1880 nM in test [7]; 1420 nM and 1280 nM in test [8]; 1290 nM and 3110 nM in [3]; 2050 nM in test [9]. Also, the GI50 in [4] was 3.48 µM and 11.4 µM; in [5], 75.7 nM and 347 nM. In addition, the TGI in test [6] is 6.26 µM and 22.5 µM; in test [1], over 100 µM; in [7] it was 12.7 µM and 6.41 µM; in test [8] it was 10.6 µM and 12.6 µM; in [3], 16.6 µM and > 100 µM; in test [9] it was 92.7 µM. Moreover, the TGI was 13.6 µM and 74.4 µM in test [4]; 0.732 µM and 4.64 µM in [5].

Consider `CCCCC[C@H]1C/C=C2/C(=O)C=C[C@@H]2C/C=C\CCCC(=O)O[C@@H](CCCCC)C/C=C2/C(=O)C=C[C@@H]2C/C=C\CCCC(=O)O1`, for which the GI50 was 449 nM in test [6]; 373 nM in test [1]; 132 nM in test [7]; 776 nM in test [8]; 475 nM in test [3]; 285 nM in test [9]. In addition, the GI50 in [4] is 0.196 µM; in test [5], 394 nM. Further, the TGI in test [6] worked out at 0.863 µM; in test [1], 0.755 µM; in [7] it was 2.17 µM; in test [8] it was 4.57 µM; in [3], 2.67 µM; in [9] it was 0.806 µM. Also, the TGI amounted to 0.675 µM in test [4] and 0.75 µM in test [5].

As for `O=[N+]([O-])c1ccc2c(c1)Cc1cc(N=Cc3ccc4c(c3)OCO4)ccc1-2`, the TGI in test [6], in test [1], in [7], in test [8], in test [3] and in test [9] was over 100 µM in each case. For the same molecule, the TGI in test [4] and in test [5] was over 100 µM each time.

As to `Clc1ccc(N=Nc2nc3ccccc3nc2N=Nc2ccc(Cl)cc2Cl)c(Cl)c1`, the TGI in test [6], in [1], in test [10], in test [3], in test [4] and in [5] was over 100 µM each time.

Regarding `Cc1cc(Cl)ccc1Nc1nc(C(F)(F)F)ccc1C(=O)N/N=C/c1ccc(Cl)cc1`, the GI50 in [6] is 1910 nM; in test [1], 2480 nM; in test [7], 1090 nM; in test [8], 2160 nM; in test [3], 1460 nM; in test [9] it was 2130 nM. The GI50 in test [4] is 2.18 µM; in test [5] it was 1500 nM. Further, the TGI in test [6] came to 6.13 µM; in test [1], 8.71 µM; in test [7], 4.22 µM; in test [8] it was 6.38 µM; in test [3], 21.2 µM; in [9] it was 9.31 µM. The TGI in test [4] is 12.7 µM; in test [5], 6.04 µM.

Turning to `C1COCCN1.C1COCCN1.NC1CCCCC1N.[Cl-].[Pt+2]` (centres undefined), the GI50 was over 100000 nM in test [6]; over 100000 nM in test [1]; over 100 µM in test [10]; over 100000 nM in test [3]; over 100 µM in test [4]; over 100000 nM in test [5]. Further, the TGI in test [6], in [1], in test [10], in [3], in test [4] and in test [5] was over 100 µM throughout.

With `C=C1/C(=C\C=C2/CCC[C@]3(C)[C@@H]([C@H](C)CCCC(C)(C)O)CC[C@@H]23)C[C@@H](OC(=O)CBr)C[C@@H]1O`, the GI50 in test [6] is 469 nM; in test [1], 709 nM; in test [7] it was 1390 nM; in test [8] it was 1950 nM; in test [3] it was 329 nM; in [9] it was 1110 nM. Further, the figures for the GI50 in test [4] and in test [5] were 4.95 µM and 155 nM, respectively. Further, the TGI amounted to 3.17 µM in [6]; 5.13 µM in test [1]; 5.4 µM in test [7]; 18.7 µM in [8]; 1.6 µM in [3]; 5.88 µM in test [9]. The TGI in test [4] came out at 10.9 µM; in test [5] it was 0.292 µM.

Consider `COc1ccc(C2CC(C)(O)Oc3cc4c(cc32)OCO4)cc1` (centres undefined), for which the TGI in test [6] was over 91.6 µM; in test [1] it was over 100 µM; in test [7], over 100 µM; in [8] it was over 78.2 µM; in test [3], over 100 µM; in test [9], over 81.1 µM. Besides, the TGI in test [4] and in [5] was over 100 µM each time.

In the case of `COc1cccc(-n2nc(C)c3c(N/N=C(\C)c4ccncc4)ncnc32)c1`, the GI50 in test [6] is 4760 nM; in test [1], over 25000 nM; in test [7] it was 8400 nM; in test [8] it was over 25000 nM; in test [3], over 25000 nM; in [9], over 25000 nM. Moreover, the figures for the GI50 in test [4] and in test [5] were over 25 µM and 13800 nM, respectively. Besides, the TGI in [6], in test [1], in test [7], in test [8], in [3] and in test [9] was over 25 µM each time. The TGI in test [4] and in test [5] was over 25 µM in each case.

Regarding `COC(=O)[C@@]12OC[C@]34[C@H]([C@@H](O)[C@@H]1O)[C@@]1(C)[C@H](O)C(=O)C=C(C)[C@@H]1C[C@H]3OC(=O)C(OC(C)=O)[C@@H]24` (some centres undefined), the GI50 in test [6] is 14.6 nM; in [1], 50.2 nM; in test [7] it was 97.9 nM; in [8], 904 nM; in [3], 39.8 nM; in test [9], 33.4 nM. Besides, the figures for the GI50 in test [4] and in test [5] were 0.019 µM and 113 nM, respectively. Moreover, the TGI in test [6] was found to be 0.0413 µM; in test [1], 0.28 µM; in [7] it was 0.366 µM; in test [8], 8.53 µM; in test [3], 0.272 µM; in test [9], 0.134 µM. For the same molecule, the TGI came out at 0.0642 µM in test [4] and 0.449 µM in [5].

For the molecule `CCN(Cc1ccc(F)cc1)c1ccc(CO)c(F)c1`, the GI50 is 114 nM in [6]; 14900 nM in test [1]; 18900 nM in test [7]; 18000 nM in test [8]; 3930 nM in test [3]; 21600 nM in [9]. Moreover, the GI50 in test [4] is 32 µM; in [5], 8670 nM. The TGI in [6] was 0.252 µM; in [1], over 100 µM; in test [7], over 69 µM; in [8], 68.7 µM; in test [3] it was 27.6 µM; in test [9] it was 94.6 µM. Also, the TGI in test [4] is over 100 µM; in test [5], 54.4 µM.

Consider `COc1cc2c3c(n(CCCCN)c(=O)c2cc1OC)-c1cc2c(cc1C3=O)OCO2`, for which the GI50 in test [6] was 7810 nM; in [1] it was 380 nM; in test [7] it was 442 nM; in test [8], 2340 nM; in [3] it was 719 nM; in test [9] it was 159 nM. For the same molecule, the GI50 in [4] is 1.56 µM; in test [5], 2970 nM. Also, the TGI in [6] turned out to be 17 µM; in test [1], 1.35 µM; in [7], 1.56 µM; in test [8], 11.2 µM; in test [3], 4.66 µM; in test [9], 0.583 µM. Besides, the TGI was 12.4 µM in test [4] and 12 µM in test [5].

For the molecule `CCC1CN2C(=N1)c1ccccc1-c1cc(Cl)ccc12` (centres undefined), the GI50 in test [6] was 3010 nM; in test [1], 1750 nM; in test [7], 3400 nM; in [8] it was 3700 nM; in test [3], 3970 nM; in [9], 2820 nM. Besides, the GI50 was 4.97 µM in test [4] and 2390 nM in [5]. Further, the TGI amounted to 12.1 µM in test [6]; 4.21 µM in [1]; 25.4 µM in test [7]; 18.4 µM in test [8]; 28.6 µM in test [3]; 11.8 µM in [9]. Also, the figures for the TGI in [4] and in test [5] were 18.4 µM and 15.1 µM, respectively.

In the case of `CCn1cnc(C[C@H](NC(=O)[C@@H](NC(=O)Nc2cc(C(F)(F)F)cc(C(F)(F)F)c2)C(C)C)C(=O)OC)c1`, the GI50 in test [6] was over 10000 nM; in test [1], 5940 nM; in [7] it was 1900 nM; in test [8] it was over 10000 nM; in [3], 1830 nM; in test [9] it was 1970 nM. Moreover, the GI50 in test [4] was 1.98 µM; in test [5], over 10000 nM. Besides, the TGI is over 10 µM in test [6]; over 10 µM in test [1]; 4.11 µM in test [7]; over 10 µM in test [8]; 3.54 µM in test [3]; 4.03 µM in [9]. The TGI in test [4] was 4.28 µM; in test [5], over 10 µM.
